Data from patent US4169197A, “6-Deoxyneamines aminoglycoside compounds” (The Upjohn Company, priority 1978, dated 1979).
Converted amounts (≈) assume the structure as drawn.

Key:
Assay type in all cases: cell-based
P. rettgeri UC 339 = assay: standard microplate test in BHI Agar; conditions: Providencia rettgeri, UC339, 20 h, read-out: Minimum Inhibitory Concentration
Procedure: (§1) The compounds VII, XI, XVβ, XVα and XVI were tested in a standard microplate test in BHI (Brain Heart Infusion) Agar at a concentration of 1 mg./ml. and dilutions thereof at 37° incubation temperature. The end points are read out 20 hours. BHI Agar is supplied by Difco Laboratories, Detroit, Mich.

P. vulgaris UC 93 [1] = assay: standard microplate test in BHI Agar; conditions: Proteus vulgaris, UC93, 20 h, read-out: Minimum Inhibitory Concentration
Procedure: as §1

P. mirabilis UC 6671 = assay: standard microplate test in BHI Agar; conditions: Proteus mirabilis, UC6671, 20 h, read-out: Minimum Inhibitory Concentration
Procedure: as §1

S. aureus UC 76 = assay: standard microplate test in BHI Agar; conditions: Staphylococcus aureus, UC76, 20 h, read-out: Minimum Inhibitory Concentration
Procedure: as §1

S. typhi UC 215 = assay: standard microplate test in BHI Agar; conditions: Salmonella enterica, 20 h, read-out: Minimum Inhibitory Concentration
Procedure: as §1

P. morganii UC 3186 = assay: standard microplate test in BHI Agar; conditions: Morganella morganii, UC3186, 20 h, read-out: Minimum Inhibitory Concentration
Procedure: as §1

K. pneumoniae UC 58 = assay: standard microplate test in BHI Agar; conditions: Klebsiella pneumoniae, UC58, 20 h, read-out: Minimum Inhibitory Concentration
Procedure: as §1

E. coli UC 45 = assay: standard microplate test in BHI Agar; conditions: Escherichia coli, UC45, 37°, 20 hours, Table III, read-out: Minimum Inhibitory Concentration
Procedure: as §1

S. faecalis UC 694 = assay: standard microplate test in BHI Agar; conditions: Enterococcus faecalis, UC694, 20 h, read-out: Minimum Inhibitory Concentration
Procedure: as §1

Ps. aeruginosa UC 95 [2] = assay: standard microplate test in BHI Agar; conditions: Pseudomonas aeruginosa, UC95, 20 h, read-out: Minimum Inhibitory Concentration
Procedure: as §1

S. schottmuelleri UC 126 [3] = assay: standard microplate test in BHI Agar; conditions: 37°, 20 hours, Table III, read-out: Minimum Inhibitory Concentration
Procedure: as §1

S. pyogenes UC 152 = assay: standard microplate test in BHI Agar; conditions: Streptococcus pyogenes, UC152, 20 h, read-out: Minimum Inhibitory Concentration
Procedure: as §1

S. flexneri UC 143 = assay: standard microplate test in BHI Agar; conditions: Shigella flexneri, UC143, 37°, 20 hours, Table III, read-out: Minimum Inhibitory Concentration
Procedure: as §1

S. pneumoniae I UC 41 = assay: standard microplate test in BHI Agar; conditions: Streptococcus pneumoniae, UC41, 20 h, read-out: Minimum Inhibitory Concentration
Procedure: as §1

S. marcescens UC 131 = assay: standard microplate test in BHI Agar; conditions: Serratia marcescens, UC131, 20 h, read-out: Minimum Inhibitory Concentration
Procedure: as §1

E. coli UC 51 = assay: standard disc plate assay, zones of inhibition; conditions: Escherichia coli, UC51, 12.5 mm paper discs, Table II, read-out: Zones of Inhibition
From the text: (§2) The compounds of formulas (V, VII, IX, XI, XIV, XVI, and XIX) are active as antibacterials and can be used in various environments to erradicate or control susceptible microorganisms. Tables I and II set forth the in vitro antibacterial test results for representative compounds of the present invention. The results were obtained with a standard disc plate assay using 12.5 mm paper discs.

P. vulgaris UC 93 [4] = assay: standard disc plate assay, zones of inhibition; conditions: Proteus vulgaris, UC93; 1 mg/ml; 12.5 mm paper discs; Table II; read-out: Zones of Inhibition
From the text: as §2

S. gallinarum UC 265 = assay: standard disc plate assay, zones of inhibition; conditions: Salmonella enterica, 12.5 mm paper discs, Table II, read-out: Zones of Inhibition
From the text: as §2

S. lutea UC 130 = assay: standard disc plate assay, zones of inhibition; conditions: Micrococcus luteus, UC130; 1 mg/ml; 12.5 mm paper discs; Table II; read-out: Zones of Inhibition
From the text: as §2

S. aureus UC 80 = assay: standard disc plate assay, zones of inhibition; conditions: Staphylococcus aureus, UC80, 12.5 mm paper discs, Table II, read-out: Zones of Inhibition
From the text: as §2

K. pneumoniae UC 57 = assay: standard disc plate assay, zones of inhibition; conditions: Klebsiella pneumoniae, UC57, 12.5 mm paper discs, Table II, read-out: Zones of Inhibition
From the text: as §2

B. subtilis UC 564 = assay: standard disc plate assay, zones of inhibition; conditions: Bacillus subtilis, UC564, 12.5 mm paper discs, Table II, read-out: Zones of Inhibition
From the text: as §2

Ps. aeruginosa UC 95 [5] = assay: standard disc plate assay, zones of inhibition; conditions: Pseudomonas aeruginosa, UC95; 1 mg/ml; 12.5 mm paper discs; Table II; read-out: Zones of Inhibition
From the text: as §2

S. schottmuelleri UC 126 [6] = assay: standard disc plate assay, zones of inhibition; conditions: 1 mg/ml; 12.5 mm paper discs; Table II
From the text: as §2

B. cereus UC 3145 = assay: standard disc plate assay, zones of inhibition; conditions: Bacillus cereus, UC3145; 1 mg/ml; 12.5 mm paper discs; Table II; read-out: Zones of Inhibition
From the text: as §2

What does the source list for `C[C@@]1(O)C[C@H](N)C[C@H](N)[C@H]1O[C@H]1O[C@H](CN)[C@@H](O)[C@H](O)[C@H]1N` [6-deoxy-5-methylneamine (VII), 6-deoxy-5-methyl-neamine]?
MIC (P. rettgeri UC 339): > 500 µg/mL; MIC (P. vulgaris UC 93 [1]): 62.5 µg/mL (≈ 195 µM); MIC (P. mirabilis UC 6671): 250 µg/mL (≈ 780 µM); MIC (S. aureus UC 76): 15.6 µg/mL (≈ 48.7 µM); MIC (S. typhi UC 215): 62.5 µg/mL (≈ 195 µM); MIC (P. morganii UC 3186): 125 µg/mL (≈ 390 µM); MIC (K. pneumoniae UC 58): 15.6 µg/mL (≈ 48.7 µM); MIC (E. coli UC 45): 125 µg/mL (≈ 390 µM); MIC (S. faecalis UC 694): > 500 µg/mL; MIC (Ps. aeruginosa UC 95 [2]): > 500 µg/mL; MIC (S. schottmuelleri UC 126 [3]): 62.5 µg/mL (≈ 195 µM); MIC (S. pyogenes UC 152): 7.8 µg/mL (≈ 24.3 µM); MIC (S. flexneri UC 143): 125 µg/mL (≈ 390 µM); MIC (S. pneumoniae I UC 41): 62.5 µg/mL (≈ 195 µM); MIC (S. marcescens UC 131): 125 µg/mL (≈ 390 µM); zone of inhibition at 100 µg/mL (E. coli UC 51; 0.1 mg/ml): 16 mm; zone of inhibition at 1000 µg/mL (E. coli UC 51; 1 mg/ml): 24 mm; zone of inhibition at 1000 µg/mL (P. vulgaris UC 93 [4]): 24 mm; zone of inhibition at 100 µg/mL (S. gallinarum UC 265; 0.1 mg/ml): 18 mm; zone of inhibition at 1000 µg/mL (S. gallinarum UC 265; 1 mg/ml): 28 mm; zone of inhibition at 1000 µg/mL (S. lutea UC 130): 15 mm; zone of inhibition at 100 µg/mL (S. aureus UC 80; 0.1 mg/ml): 18 mm; zone of inhibition at 1000 µg/mL (S. aureus UC 80; 1 mg/ml): 25 mm; zone of inhibition at 100 µg/mL (K. pneumoniae UC 57; 0.1 mg/ml): 22 mm; zone of inhibition at 1000 µg/mL (K. pneumoniae UC 57; 1 mg/ml): 29 mm; zone of inhibition at 100 µg/mL (B. subtilis UC 564; 0.1 mg/ml): 26 mm; zone of inhibition at 1000 µg/mL (B. subtilis UC 564; 1 mg/ml): 37 mm; zone of inhibition at 1000 µg/mL (Ps. aeruginosa UC 95 [5]): 15 mm; zone of inhibition at 1000 µg/mL (S. schottmuelleri UC 126 [6]): 21 mm; zone of inhibition at 1000 µg/mL (B. cereus UC 3145): 23 mm
